Data on 51 molecules can be found in PubChem BioAssay AID1996.

Broadly, the solubility (kinetic) is solubility judged after dilution from a stock solution rather than from solid.

Each structure is given as a SMILES string. ≈ marks a conversion by molar mass, not a printed value.

The conditions of the data set: buffer; pH 7.4; 200.0 µM.
`Cc1cccc(NC(=O)C2C3CCCCC32)c1` (stereo unspecified) gave a kinetic solubility of 3 µg/mL (≈ 13.1 µM).

For `CC(C)(CNS(=O)(=O)c1ccc(Br)s1)N1CCOCC1`, the solubility (kinetic) was > 57.5 µg/mL. Turning to `CCC(CC)C(=O)Nc1cccc(C(=O)NC(C)(C)C)c1`, the solubility (kinetic) was > 43.6 µg/mL. The same measure for `CC(C)Cn1c(N)c(C=O)c(=O)[nH]c1=O`: > 31.7 µg/mL; for `O=C(CSC1=NS(=O)(=O)c2ccccc2N1)Nc1ccccc1F`: > 54.8 µg/mL. Turning to `CC(C)c1ccc(N(CC(=O)N2CCOCC2)S(C)(=O)=O)cc1`, the kinetic solubility was found to be 32.9 µg/mL (≈ 96.6 µM).

Take `CCCc1cc(=O)[nH]c(SCC(=O)N2CCc3ccccc32)n1`: the kinetic solubility amounted to 7.6 µg/mL (≈ 23.1 µM). The molecule `O=C1CN(C(=O)CNC(=O)c2ccc(Cl)cc2Cl)CCN1` had a kinetic solubility of 47.4 µg/mL (≈ 144 µM). This solubility kinetic is about 6.2-fold higher than that of the molecule before. Take `COc1cccc(CN(C)C(=O)c2cc(S(=O)(=O)N3CCCC3)ccc2C)c1OC`: the solubility (kinetic) is > 64.9 µg/mL.

Turning to `Cc1ccccc1NC(=S)N1CCN(c2ccccc2C)CC1`, the kinetic solubility was 0.6 µg/mL (≈ 1.84 µM). With `O=C(Cn1cc(C(=O)C2CC2)c2ccccc21)Nc1ccccc1Cl` the figure was < 0.4 µg/mL. The same measure for `O=C1NC(=Nc2cccnc2)S/C1=C/c1ccc(F)cc1`: 0.7 µg/mL (≈ 2.34 µM); for `COC(=O)c1sc(NC(=O)COc2ccccc2C)nc1C`: 0.6 µg/mL (≈ 1.87 µM); for `Cc1csc(NC(=O)c2ccc(S(=O)(=O)N3CCN(C)CC3)cc2)n1`: 54.5 µg/mL (≈ 143 µM). `Cc1ccc(-n2c(/C=C/c3ccccn3)nc3ccccc3c2=O)cc1`: the kinetic solubility was determined as 0.6 µg/mL (≈ 1.77 µM).

For the molecule `CC(C)N(C(=O)Cn1c(Cl)nc2ccccc21)C(C)C`, the kinetic solubility is > 44.1 µg/mL.

`COc1ccc(CNC(=O)CCn2c(=O)[nH]c3ccccc3c2=O)cc1` returned a solubility (kinetic) of 2.9 µg/mL (≈ 8.21 µM). For the molecule `CCCN1CCC(N(CCc2ccccc2)Cc2ccccc2)CC1`, the solubility (kinetic) came out at 32.5 µg/mL (≈ 96.6 µM). The same measure for `COc1ccc(CSc2nc(C)[nH]c2[N+](=O)[O-])cc1[N+](=O)[O-]`: 3.2 µg/mL (≈ 9.87 µM); for `O=C(COC(=O)Cc1ccc(Br)cc1)NC1CCCC1`: > 51 µg/mL. The same measure for `CN(C)c1ccc(Nc2nc(N)c3ccccc3n2)cc1.Cl`: > 47.4 µg/mL; for `COc1ccc(NS(=O)(=O)c2cc(NC(=O)COc3ccc(OC)cc3)ccc2N2CCOCC2)cc1`: 3.4 µg/mL (≈ 6.44 µM). With `CCCn1c(COc2ccc(C(=O)O)cc2)nc2ccccc21` the figure was > 46.6 µg/mL; with `Cc1nonc1C(=O)N1CCCC(Nc2ccc(C(C)C)cc2)C1` (stereo unspecified), 32.8 µg/mL (≈ 99.9 µM). On to `O=C(NCc1ccco1)NC(=O)c1csc([N+](=O)[O-])c1`, for which the kinetic solubility is 0.6 µg/mL (≈ 2.03 µM). With `Cc1ccsc1C(=O)NCC(=O)OCc1ccccc1` the figure was > 43.4 µg/mL. In the case of `ClC1(Cl)CC1Cn1cnc2ccccc21` (stereo unspecified), the solubility (kinetic) is 33.4 µg/mL (≈ 139 µM). For `CCOC(=O)N1CCC(NS(=O)(=O)c2ccc(C)cc2)CC1`, the solubility (kinetic) is > 49 µg/mL. The same measure for `COc1ccc(Nc2ncnc3ccc(Br)cc23)c(OC)c1`: 7.3 µg/mL (≈ 20.3 µM). With `Cc1ccc(Cn2cc(CCC(=O)O)c3ccccc32)cc1` the figure was > 44 µg/mL; with `CC(=O)c1ccc(NC(=O)NC2CCCCCCC2)cc1`, 5.1 µg/mL (≈ 17.7 µM); with `COc1ccccc1N1C(=O)C(=O)N(C)C1=O`, > 35.1 µg/mL. The same measure for `CC(=O)c1ccc(NC(=S)NCc2cccnc2)cc1`: > 42.8 µg/mL; for `Cc1cccc(C(=O)N/N=C/c2ccoc2)c1`: > 34.2 µg/mL. Molecule `COc1ccc(CN2CCN(Cc3ccc(C)cc3)C(CCO)C2)cc1OC` (stereo unspecified) yielded a solubility (kinetic) of 51.8 µg/mL (≈ 135 µM).

As to `COc1ccc(S(=O)(=O)N(C)CC(=O)N2CCCC2)cc1`, the kinetic solubility was > 46.9 µg/mL. With `O=C(Oc1cc(=O)oc2c1c(=O)n1c3c(cccc23)CC1)c1ccccc1` the figure was 33 µg/mL (≈ 91.8 µM). The same measure for `O=C(Nc1ccccc1)OCc1cncs1`: > 35.1 µg/mL; for `COc1ccc(-c2cc(-c3ccccc3)c(C#N)c(=S)[nH]2)cc1`: 3.2 µg/mL (≈ 10.1 µM); for `COc1cccc(C(=O)OCC(=O)N2CCc3ccccc3C2)c1OC`: 11.7 µg/mL (≈ 32.9 µM). With `CC1CC(=O)N(c2ccc(Br)cc2)C(=O)C1` the figure was > 42.3 µg/mL; with `CCOc1cc(N2CCOCC2)c(OCC)cc1NC(=O)COC(=O)c1ccc([N+](=O)[O-])o1`, > 69.5 µg/mL; with `CC(C)(C)OC(=O)C(C)(C)O/N=C(\C(=O)O)c1csc(N)n1`, > 49.4 µg/mL.

On to `C=CCN1C(=O)/C(=C2/Sc3ccccc3N2CC)SC1=S`, for which the solubility (kinetic) is < 0.4 µg/mL. The same measure for `CC12CCC(=O)N1C(C(=O)Nc1nc3ccccc3s1)CS2` (stereo unspecified): 13 µg/mL (≈ 39 µM); for `CN1C2CCC1CC(NC(=O)c1ccc(Cl)cc1)C2` (stereo unspecified): > 41.8 µg/mL; for `N#C/C(=C(\O)c1cc(Cl)sc1Cl)c1nc2ccccc2[nH]1`: < 0.2 µg/mL. With `Cc1ccc(S(=O)(=O)N2CCN(C(=O)COC(=O)/C=C/c3ccc([N+](=O)[O-])cc3)CC2)c(C)c1`, the solubility (kinetic) is 1.9 µg/mL (≈ 3.9 µM). With `Cc1cc(C(=O)Nc2ccc(F)c(Cl)c2)on1` the figure was 18.3 µg/mL (≈ 71.9 µM); with `O=C1CCCN1CCCNC(=S)Nc1ccccc1Cl`, 38.4 µg/mL (≈ 123 µM).

`Cc1cccc(N2CCN(C(=O)c3ccc(NC(=O)CC4SC(N5CCCC5)=NC4=O)cc3)CC2)c1C` (stereo unspecified) registered a kinetic solubility of 30.3 µg/mL (≈ 58.3 µM). This solubility kinetic and that of the molecule before are within 1.5-fold of each other.
